{
  "source": "paper PMC10165273",
  "about": "“Itch receptor MRGPRX4 interacts with the receptor activity–modifying proteins” (The Journal of Biological Chemistry, 2023)",
  "key": {"MRGPRX4 + RAMP1": {"molecular_target": "T1, MRGPRX4 + RAMP1 (Homo sapiens, UniProt Q96LA9)", "T1 construct": "expressed in transfected cells; host or cells: HEK293T", "T1 sequence (Q96LA9 whole entry)": "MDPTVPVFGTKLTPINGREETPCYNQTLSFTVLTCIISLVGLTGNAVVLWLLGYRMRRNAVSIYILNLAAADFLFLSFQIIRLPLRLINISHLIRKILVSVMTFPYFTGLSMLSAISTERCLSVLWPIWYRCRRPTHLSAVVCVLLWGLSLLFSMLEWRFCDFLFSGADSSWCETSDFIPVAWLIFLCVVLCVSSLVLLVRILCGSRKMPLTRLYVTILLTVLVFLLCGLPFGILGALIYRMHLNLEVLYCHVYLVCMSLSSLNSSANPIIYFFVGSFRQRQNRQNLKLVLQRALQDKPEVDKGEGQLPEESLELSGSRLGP", "test": "IP1 accumulation, MRGPRX4 coexpressed with RAMP1", "type": "cell-based", "design": "key to IP1 Basal / response to agonist, X4:ramp1.I:1 / response to agonist, X4:ramp1.I:2 / response to agonist, X4:ramp1.I:0.25 / response to agonist, X4:ramp1.I:0.5: % IP1; unstimulated mock = 0%, fully stimulated MRGPRX4 = 100%", "conditions": "for IP1 accumulation (normalized): MRGPRX4+RAMP1 1pg 1:1, Supplementary Figure 5d, 5g", "procedure": "HEK293T cells were transfected with 1 pg/cell of MRGPRX4 DNA, and the amount of DNA was kept constant at 2 pg/cell with pcDNA3.1(+) empty vector, unless otherwise specified. Twenty four hours after transfection, IP1 assay was performed as previously described ([51]). When applicable, cells were treated with 1 μM YM254890 (YM) or different concentrations of U73122 for 1 h prior to addition of agonist or buffer. After incubation for 2 h, HTRF reagents and IP1 calibration standards were added and incubated for 2 h in the dark at room temperature. Time-resolved fluorescence signals were read on the BioTek Synergy NEO-TRF Hybrid multi-mode reader (BioTek Instruments). All data were carried out in three independent experiments with three technical replicate each.\nFor a homogenous transfection of MRGPRX4, a master mix of MRGPRX4 DNA was made prior to addition of the RAMP DNA. […]\nData reduction, standard calibration, and transformation of HTRF data were performed as previously described ([51]). Normalized IP1 values were calculated relative to the unstimulated mock-transfected cells (set to 0%) and fully stimulated MRGPRX4 (alone if applicable) (set to 100%)."}, "[1]": {"test_system": "mock-transfected HEK293T cells", "test": "IP1 accumulation, mock-transfected cells", "type": "cell-based, human", "design": "IP1 Basal / IP1 span / IP1 Emax / IP1 accumulation, dose-response (Figure 1a) / IP1 accumulation with YM (Figure 1c) / IP1 accumulation: unit not given here", "conditions": "for IP1 accumulation, dose-response (Figure 1a): pcDNA (mock), individual replicates; for IP1 accumulation: mock, Fig S3a-c"}, "MRGPRX4 + RAMP3": {"molecular_target": "T2, MRGPRX4 + RAMP3 (Homo sapiens, UniProt Q96LA9)", "T2 construct": "expressed in transfected cells; host or cells: HEK293T", "T2 sequence (Q96LA9 whole entry)": "as above", "test": "IP1 accumulation, MRGPRX4 coexpressed with RAMP3", "type": "cell-based", "design": "key: % IP1; unstimulated mock = 0%, fully stimulated MRGPRX4 = 100%", "conditions": "Figure 4c-f; agonist 100µM; X4:ramp3 1:2; MRGPRX4 = 100"}},
  "note": "Where “and” joins values, the source holds several entries; their conditions need not be identical. Identical values can stand only once. Like-named read-outs stand apart in the source and are kept apart here.",
  "data": [
    {"smiles": "CC(C)[C@H]1CC[C@H](C(=O)N[C@H](Cc2ccccc2)C(=O)O)CC1", "note": "[Nateglinide]", "values": [
      {"measurement": "EC50", "setting": "MRGPRX4 + RAMP1; Figure 4a top, DNA ratio MRGPRX4:RAMP1 1:0.75, individual replicates, read-out: potency (converted)", "result": "10.7 µM and 11.9 µM and 6.64 µM"},
      {"measurement": "EC50", "setting": "MRGPRX4 + RAMP1; Figure 4a top, DNA ratio MRGPRX4:RAMP1 1:1, individual replicates, read-out: potency (converted)", "result": "9.29 µM and 9.23 µM"},
      {"measurement": "response to agonist, X4:ramp1.I:0.25", "setting": "MRGPRX4 + RAMP1; Figure 4c-f, agonist 100µM, X4:ramp1 1:0.25, MRGPRX4 = 100", "result": "94.0571 and 91.2695"},
      {"measurement": "response to agonist, X4:ramp1.I:0.5", "setting": "MRGPRX4 + RAMP1; Figure 4c-f, agonist 100µM, X4:ramp1 1:0.5, MRGPRX4 = 100", "result": "83.4975 and 100.084"},
      {"measurement": "response to agonist, X4:ramp1.I:1", "setting": "MRGPRX4 + RAMP1; Figure 4c-f, agonist 100µM, X4:ramp1 1:1, MRGPRX4 = 100", "result": "101.298 and 92.1048"},
      {"measurement": "response to agonist, X4:ramp1.I:2", "setting": "MRGPRX4 + RAMP1; Figure 4c-f, agonist 100µM, X4:ramp1 1:2, MRGPRX4 = 100", "result": "90.9768 and 105.34"},
      {"measurement": "IP1 Basal", "setting": "MRGPRX4 + RAMP1; MRGPRX4 + RAMP1 0.25 pg (Fig. S3), normalized per agonist", "result": 19.44},
      {"measurement": "EC50", "setting": "MRGPRX4 + RAMP1; MRGPRX4 + RAMP1 0.25 pg (Fig. S3), normalized per agonist, read-out: IP1 EC50", "result": 11.5, "unit": "µM"},
      {"measurement": "Emax", "setting": "MRGPRX4 + RAMP1; MRGPRX4 + RAMP1 0.25 pg (Fig. S3), normalized per agonist, read-out: IP1 Emax", "result": 112, "unit": "%"},
      {"measurement": "Emax", "setting": "MRGPRX4 + RAMP1; MRGPRX4 + RAMP1 0.25 pg (Fig. S3), normalized per agonist, read-out: IP1 span", "result": 92.4, "unit": "%"},
      {"measurement": "IP1 Basal", "setting": "MRGPRX4 + RAMP1; MRGPRX4 + RAMP1 0.5 pg (Fig. S3), normalized per agonist", "result": 18.21},
      {"measurement": "EC50", "setting": "MRGPRX4 + RAMP1; MRGPRX4 + RAMP1 0.5 pg (Fig. S3), normalized per agonist, read-out: IP1 EC50", "result": 9.56, "unit": "µM"},
      {"measurement": "Emax", "setting": "MRGPRX4 + RAMP1; MRGPRX4 + RAMP1 0.5 pg (Fig. S3), normalized per agonist, read-out: IP1 Emax", "result": 115, "unit": "%"},
      {"measurement": "Emax", "setting": "MRGPRX4 + RAMP1; MRGPRX4 + RAMP1 0.5 pg (Fig. S3), normalized per agonist, read-out: IP1 span", "result": 96.6, "unit": "%"},
      {"measurement": "IP1 Basal", "setting": "MRGPRX4 + RAMP1; MRGPRX4 + RAMP1 1 pg (Fig. S3), normalized per agonist", "result": 16.52},
      {"measurement": "EC50", "setting": "MRGPRX4 + RAMP1; MRGPRX4 + RAMP1 1 pg (Fig. S3), normalized per agonist, read-out: IP1 EC50", "result": 9.45, "unit": "µM"},
      {"measurement": "Emax", "setting": "MRGPRX4 + RAMP1; MRGPRX4 + RAMP1 1 pg (Fig. S3), normalized per agonist, read-out: IP1 Emax", "result": 114, "unit": "%"},
      {"measurement": "Emax", "setting": "MRGPRX4 + RAMP1; MRGPRX4 + RAMP1 1 pg (Fig. S3), normalized per agonist, read-out: IP1 span", "result": 97.4, "unit": "%"},
      {"measurement": "IP1 Basal", "setting": "MRGPRX4 + RAMP1; MRGPRX4 + RAMP1 2 pg (Fig. S3), normalized per agonist", "result": 11.98},
      {"measurement": "EC50", "setting": "MRGPRX4 + RAMP1; MRGPRX4 + RAMP1 2 pg (Fig. S3), normalized per agonist, read-out: IP1 EC50", "result": 9.37, "unit": "µM"},
      {"measurement": "Emax", "setting": "MRGPRX4 + RAMP1; MRGPRX4 + RAMP1 2 pg (Fig. S3), normalized per agonist, read-out: IP1 Emax", "result": 114, "unit": "%"},
      {"measurement": "Emax", "setting": "MRGPRX4 + RAMP1; MRGPRX4 + RAMP1 2 pg (Fig. S3), normalized per agonist, read-out: IP1 span", "result": 102, "unit": "%"},
      {"measurement": "IP1 Basal", "setting": "MRGPRX4 + RAMP1; Tet-On MRGPRX4:RAMP1 Ratio 1:0.5 (Fig. S5D)", "result": 7.772},
      {"measurement": "EC50", "setting": "MRGPRX4 + RAMP1; Tet-On MRGPRX4:RAMP1 Ratio 1:0.5 (Fig. S5D), read-out: IP1 EC50", "result": 8.42, "unit": "µM"},
      {"measurement": "Emax", "setting": "MRGPRX4 + RAMP1; Tet-On MRGPRX4:RAMP1 Ratio 1:0.5 (Fig. S5D), read-out: IP1 Emax", "result": 111, "unit": "%"},
      {"measurement": "Emax", "setting": "MRGPRX4 + RAMP1; Tet-On MRGPRX4:RAMP1 Ratio 1:0.5 (Fig. S5D), read-out: IP1 span", "result": 104, "unit": "%"},
      {"measurement": "IP1 Basal", "setting": "MRGPRX4 + RAMP1; Tet-On MRGPRX4:RAMP1 Ratio 1:0.75 (Fig. S5D)", "result": 6.875},
      {"measurement": "EC50", "setting": "MRGPRX4 + RAMP1; Tet-On MRGPRX4:RAMP1 Ratio 1:0.75 (Fig. S5D), read-out: IP1 EC50", "result": 5.95, "unit": "µM"},
      {"measurement": "Emax", "setting": "MRGPRX4 + RAMP1; Tet-On MRGPRX4:RAMP1 Ratio 1:0.75 (Fig. S5D), read-out: IP1 Emax", "result": 90, "unit": "%"},
      {"measurement": "Emax", "setting": "MRGPRX4 + RAMP1; Tet-On MRGPRX4:RAMP1 Ratio 1:0.75 (Fig. S5D), read-out: IP1 span", "result": 83.1, "unit": "%"},
      {"measurement": "IP1 Basal", "setting": "MRGPRX4 + RAMP1; Tet-On MRGPRX4:RAMP1 Ratio 1:1 (Fig. S5D)", "result": 7.220},
      {"measurement": "EC50", "setting": "MRGPRX4 + RAMP1; Tet-On MRGPRX4:RAMP1 Ratio 1:1 (Fig. S5D), read-out: IP1 EC50", "result": 6.43, "unit": "µM"},
      {"measurement": "Emax", "setting": "MRGPRX4 + RAMP1; Tet-On MRGPRX4:RAMP1 Ratio 1:1 (Fig. S5D), read-out: IP1 Emax", "result": 89.6, "unit": "%"},
      {"measurement": "Emax", "setting": "MRGPRX4 + RAMP1; Tet-On MRGPRX4:RAMP1 Ratio 1:1 (Fig. S5D), read-out: IP1 span", "result": 82.3, "unit": "%"},
      {"measurement": "IP1 accumulation (normalized)", "setting": "MRGPRX4 + RAMP1; log [nateglinide] (M) -4", "result": "91.5442 and 89.3648 and 84.5333 and 68.7205"},
      {"measurement": "IP1 accumulation (normalized)", "setting": "MRGPRX4 + RAMP1; log [nateglinide] (M) -4.69897", "result": "71.6977 and 68.3681 and 72.5875"},
      {"measurement": "IP1 accumulation (normalized)", "setting": "MRGPRX4 + RAMP1; log [nateglinide] (M) -5.39794", "result": "40.9098 and 36.9736 and 38.5575"},
      {"measurement": "IP1 accumulation (normalized)", "setting": "MRGPRX4 + RAMP1; log [nateglinide] (M) -6.09691", "result": "15.3098 and 13.9439 and 10.1316"},
      {"measurement": "IP1 accumulation (normalized)", "setting": "MRGPRX4 + RAMP1; log [nateglinide] (M) -7.49485", "result": "9.7787 and 6.02 and 5.114"},
      {"measurement": "IP1 accumulation, dose-response (Figure 1a)", "setting": "[1]; log [agonist] (M) -4", "result": "0.2271 and 0.3078 and 0.4629 and -0.5571 and 0.3306 and 0.0456 and 0.8656 and -0.04322 and 0.1347 and -0.9843 and -0.02794 and -0.8867"},
      {"measurement": "IP1 accumulation, dose-response (Figure 1a)", "setting": "[1]; log [agonist] (M) -4.95424", "result": "0.4814 and 0.1593 and 0.9731 and 0.2847 and 0.3905 and 0.01267 and 0.9879 and -0.1469 and 0.1915 and -0.5702 and -0.3086 and -0.9418"},
      {"measurement": "IP1 accumulation, dose-response (Figure 1a)", "setting": "[1]; log [agonist] (M) -5.90849", "result": "0.6831 and 0.2899 and 0.8301 and 0.7307 and 0.1868 and 0.3562 and 0.4874 and 0.05414 and 0.7331 and -0.7448 and -0.08445 and -0.6788"},
      {"measurement": "IP1 accumulation, dose-response (Figure 1a)", "setting": "[1]; log [agonist] (M) -6.86273", "result": "1.046 and 0.7412 and 1.424 and 1.025 and 0.6018 and 0.6703 and 1.266 and 0.6126 and 1.453 and 0.03754 and 0.2747 and 0.1665"},
      {"measurement": "IP1 accumulation", "setting": "[1]; log [Nateglinide] (M) -4", "result": "1.284 and 1.14"},
      {"measurement": "IP1 accumulation", "setting": "[1]; log [Nateglinide] (M) -4.69897", "result": "0.9537 and 0.9999 and 1.07"},
      {"measurement": "normalized IP1 accumulation", "setting": "[1]; pcDNA, log [agonist] (M) -5.39794", "result": "0.47 and 0.5436 and 0.4562"},
      {"measurement": "response to agonist, X4:ramp3.I:2", "setting": "MRGPRX4 + RAMP3", "result": "54.9628 and 57.8528"}
    ]}
  ]
}
